From patent publication US20100093542A1, “HERBICIDE COMBINATION COMPRISING DIMETHOXYTRIAZINYL SUBSTITUTED DIFLUOROMETHANESULFONYLANILIDES” (BAYER CORPSCIENCE AG, priority 2008, published 2010)
Read-outs that look alike come from different tables or passages of the source.

Experiments:
Experiment in all cases: Post-emergence action against weeds, greenhouse pot test, visual scoring
Format in all cases: in vivo
[1] = tested on: Viola tricolor (VIOTR); settings: read-out: % activity found
Experimental: (§1) Seeds or rhizome pieces of mono- and dicotyledonous harmful and useful plants were placed in peat pots (diameter 4 cm) filled with sandy loam and then covered with soil. The pots were kept in a greenhouse under optimum conditions. In addition, harmful plants encountered in paddy rice cultivation were cultivated in pots with a water level 2 cm above the soil surface.
(§2) About three weeks after the start of the cultivation, the test plants were treated at the 2- to 3-leaf stage. The herbicides, formulated as powder or liquid concentrates, were, either alone or in the combinations according to the invention, sprayed in various dosages on to the green parts of the plants using an application rate of 600 l of water/ha (converted). For further cultivation of the plants, the pots were then again kept under optimum conditions in a greenhouse.
(§3) The visual scoring of the herbicidal effects was carried out in intervals up to 21 days after the treatment. Scoring was carried out in percent in comparison to the untreated control plants. 0%=no herbicidal activity, 100%=complete herbicidal activity=complete kill.
(§4) The percentages from the treatments with the herbicides alone (=individual application) and with the combinations according to the invention (=mixtures) were employed to calculate interactions using the method of Colby. When the observed efficacies of the mixtures exceed the formal sum of the values of the tests with individual applications, they also exceed the expected value according to Colby, which is calculated using the formula below (cf. S. R. Colby; in Weeds 15 (1967) pp. 20 to 22):
(§5) Here: • A, B=activity of components A and B in percent at a dosage of a and b g of ai/ha (=gramm of active substance per hectare), respectively. • E=expected value in % at a dosage of a+b g of ai/ha.

[2] = tested on: Amaranthus retroflexus (AMARE); settings: read-out: % activity found; for inhibition at 12 g/ha: A-1 12 g of ai/ha
Experimental: as §1, §2, §3, §4, §5

[3] = tested on: Triticum aestivum (TRZAS); settings: read-out: % activity found
Experimental: as §1, §2, §3, §4, §5

[4] = tested on: Zea mays (ZEAMX); settings: read-out: % activity found; for inhibition at 30 g/ha / inhibition at 90 g/ha: ZEAMX
Experimental: as §1, §2, §3, §4, §5

[5] = tested on: Abuthilon theophrasti (ABUTH); settings: Abutilon theophrasti, 240 h, read-out: % activity found
Experimental: as §1, §2, §3, §4, §5

[6] = tested on: Matricaria inodora (MATIN); settings: Tripleurospermum inodorum, read-out: % activity found
Experimental: as §1, §2, §3, §4, §5

[7] = tested on: Fallopia (ex Polygonum) convolvulus (POLCO); settings: read-out: % activity found
Experimental: as §1, §2, §3, §4, §5

[8] = tested on: Oryza sativa (ORYSA); settings: read-out: % activity found; for inhibition at 90 g/ha: ORYSA, B3-3 90 g of ai/ha
Experimental: as §1, §2, §3, §4, §5

[9] = tested on: Avena fatua (AVEFA); settings: read-out: % activity found; for inhibition at 30 g/ha / inhibition at 90 g/ha: AVEFA
Experimental: as §1, §2, §3, §4, §5

[10] = tested on: Pharbitis purpurea (PHBPU); settings: Ipomoea purpurea, read-out: % activity found; for inhibition at 4 g/ha / inhibition at 12 g/ha: PHBPU; for inhibition at 4 g/ha: A-1 4 g of ai/ha; for inhibition at 12 g/ha: A-1 12 g of ai/ha
Experimental: as §1, §2, §3, §4, §5

[11] = tested on: Cyperus esculentus (CYPES); settings: 504 h, read-out: % activity found
Experimental: as §1, §2, §3, §4, §5

[12] = tested on: Lolium multiflorum (LOLMU); settings: read-out: % activity found
Experimental: as §1, §2, §3, §4, §5

[13] = tested on: Setaria viridis (SETVI); settings: 504 h, read-out: % activity found
Experimental: as §1, §2, §3, §4, §5

[14] = tested on: Alopecurus myosuroides (ALOMY); settings: 504 h, read-out: % activity found
Experimental: as §1, §2, §3, §4, §5

[15] = 240 h, 10 DAT, B3-1 30 g of ai/ha
[16] = 240 h, 10 DAT, B3-1 90 g of ai/ha
[17] = 504 h, 21 DAT, B3-3 30 g of ai/ha
[18] = 504 h, 21 DAT, B3-3 90 g of ai/ha

`CCSC(C)CC1CC(=O)C(/C(CC)=N/OC/C=C/Cl)=C(O)C1` (racemic) [B2-3, (E,E)-(±)-2-[1-[[(3-chloro-2-propenyl)oxy]imino]propyl]-5-[2-(ethylthio)propyl]-3-hydroxy-2-cyclohexen-1-one] gave an inhibition at 20 g/ha ([1]; 240 h) of 0%, an inhibition at 60 g/ha ([1]; 240 h) of 0% and an inhibition at 20 g/ha ([1]; 504 h) of 0%. For the same compound, the inhibition at 60 g/ha ([1]; 504 h) was 0%, the inhibition at 20 g/ha ([2]; 240 h) was 0% and the inhibition at 60 g/ha ([2]; 240 h) was 0%. For the same compound, the inhibition at 20 g/ha ([2]; 504 h) was 0%, the inhibition at 60 g/ha ([2]; 504 h) was 0% and the inhibition at 20 g/ha ([3]; 240 h) was 40%. It also gave an inhibition at 60 g/ha ([4]; 240 h) of 80%, an inhibition at 20 g/ha [5] of 0% and an inhibition at 60 g/ha [5] of 0%. It also gave an inhibition at 60 g/ha ([6]; 240 h) of 0%, an inhibition at 20 g/ha ([6]; 504 h) of 0% and an inhibition at 60 g/ha ([6]; 504 h) of 0%. It also gave an inhibition at 20 g/ha ([7]; 240 h) of 0%, an inhibition at 60 g/ha ([7]; 240 h) of 0% and an inhibition at 20 g/ha ([7]; 504 h) of 0%. It also gave an inhibition at 60 g/ha ([7]; 504 h) of 0%, an inhibition at 20 g/ha ([8]; 240 h) of 90% and an inhibition at 20 g/ha ([8]; 504 h) of 95%. For the same compound, the inhibition at 20 g/ha ([9]; 504 h) was 50%, the inhibition at 20 g/ha ([10]; 240 h) was 0% and the inhibition at 60 g/ha ([10]; 240 h) was 0%. For the same compound, the inhibition at 20 g/ha ([10]; 504 h) was 0%, the inhibition at 60 g/ha ([10]; 504 h) was 0% and the inhibition at 20 g/ha [11] was 0%. The inhibition at 60 g/ha [11] was 0%.

Work on `COc1nc(OC)nc(C(=O)c2cccc(F)c2N(C)S(=O)(=O)C(F)F)n1` [A-1] yielded an inhibition at 12 g/ha ([1]; 240 h, VIOTR, 10 DAT, A-1 12 g of ai/ha) of 20%, an inhibition at 12 g/ha ([2]; 240 h, AMARE, 10 DAT) of 70% and an inhibition at 4 g/ha ([2]; 504 h, AMARE, 21 DAT, A-1 4 g of ai/ha) of 70%. For the same compound, the inhibition at 12 g/ha ([2]; 504 h, AMARE, 21 DAT) was 75%, the inhibition at 4 g/ha ([5]; ABUTH, 10 DAT, A-1 4 g of ai/ha) was 70% and the inhibition at 12 g/ha ([5]; ABUTH, 10 DAT, A-1 12 g of ai/ha) was 70%. For the same compound, the inhibition at 4 g/ha ([6]; 240 h, MATIN, 10 DAT, A-1 4 g of ai/ha) was 60%, the inhibition at 4 g/ha ([7]; 240 h, POLCO, 10 DAT, A-1 4 g of ai/ha) was 70% and the inhibition at 12 g/ha ([7]; 240 h, POLCO, 10 DAT, A-1 12 g of ai/ha) was 70%. For the same compound, the inhibition at 4 g/ha ([10]; 240 h, 10 DAT) was 60%, the inhibition at 12 g/ha ([10]; 240 h, 10 DAT) was 60% and the inhibition at 4 g/ha ([10]; 504 h, 21 DAT) was 60%. The inhibition at 12 g/ha ([10]; 504 h, 21 DAT) was 65%.

Work on `CS(=O)(=O)c1ccc(C(=O)C2C(=O)CCCC2=O)c([N+](=O)[O-])c1` [B3-1, 2-[4-(methylsulfonyl)-2-nitrobenzoyl]-1,3-cyclohexanedione] yielded an inhibition at 90 g/ha ([3]; 504 h, TRZAS, 21 DAT, B3-1 90 g of ai/ha) of 30%, an inhibition at 30 g/ha [4, 15] of 0% and an inhibition at 90 g/ha [4, 16] of 20%. The inhibition at 30 g/ha ([12]; 240 h, LOLMU, 10 DAT, B3-1 30 g of ai/ha) was 30%, the inhibition at 30 g/ha ([12]; 504 h, LOLMU, 21 DAT, B3-1 30 g of ai/ha) was 0% and the inhibition at 30 g/ha [9, 15] was 0%. It also gave an inhibition at 90 g/ha [9, 16] of 0%, an inhibition at 30 g/ha ([9]; 504 h, 21 DAT, B3-1 30 g of ai/ha) of 0% and an inhibition at 90 g/ha ([9]; 504 h, 21 DAT, B3-1 90 g of ai/ha) of 0%. The inhibition at 30 g/ha ([13]; SETVI, 21 DAT, B3-1 30 g of ai/ha) was 0%, the inhibition at 90 g/ha ([13]; SETVI, 21 DAT, B3-1 90 g of ai/ha) was 20% and the inhibition at 30 g/ha ([14]; ALOMY, 21 DAT, B3-1 30 g of ai/ha) was 0%. For the same compound, the inhibition at 90 g/ha ([14]; ALOMY, 21 DAT, B3-1 90 g of ai/ha) was 30%.

With `CS(=O)(=O)c1ccc(C(=O)C2C(=O)CCCC2=O)c(Cl)c1` [B3-2, 2-[2-chloro-4-(methylsulfonyl)benzoyl]-1,3-cyclohexanedione] the inhibition at 70 g/ha ([4]; 240 h) was 0%, the inhibition at 210 g/ha ([4]; 240 h) was 0% and the inhibition at 70 g/ha ([4]; 504 h) was 0%. For the same compound, the inhibition at 210 g/ha ([4]; 504 h) was 0%, the inhibition at 70 g/ha ([12]; 504 h) was 0% and the inhibition at 70 g/ha ([9]; 240 h) was 0%. The inhibition at 70 g/ha ([9]; 504 h) was 0%, the inhibition at 210 g/ha ([9]; 504 h) was 0% and the inhibition at 70 g/ha [13] was 0%. The inhibition at 210 g/ha [13] was 20%, the inhibition at 70 g/ha [14] was 0% and the inhibition at 210 g/ha [14] was 20%.

For `CS(=O)(=O)c1ccc(C(=O)C2C(=O)CCCC2=O)c(Cl)c1COCC(F)(F)F` [B3-3, 2-[2-chloro-4-(methylsulfonyl)-3-[(2,2,2-trifluoroethoxy)methyl]benzoyl]-1,3-cyclohexanedione], the inhibition at 30 g/ha ([4]; 240 h, 10 DAT, B3-3 30 g of ai/ha) was 0%, the inhibition at 90 g/ha ([4]; 240 h, 10 DAT, B3-3 90 g of ai/ha) was 0% and the inhibition at 30 g/ha [4, 17] was 0%. It also gave an inhibition at 90 g/ha [4, 18] of 0%, an inhibition at 30 g/ha ([12]; 504 h, LOLMU, 21 DAT, B3-3 30 g of ai/ha) of 20% and an inhibition at 90 g/ha ([12]; 504 h, LOLMU, 21 DAT, B3-3 90 g of ai/ha) of 50%. It also gave an inhibition at 90 g/ha ([8]; 240 h, 10 DAT) of 40%, an inhibition at 90 g/ha ([8]; 504 h, 21 DAT) of 30% and an inhibition at 30 g/ha [9, 17] of 0%. It also gave an inhibition at 90 g/ha [9, 18] of 0%, an inhibition at 30 g/ha ([13]; SETVI, 21 DAT, B3-3 30 g of ai/ha) of 50% and an inhibition at 30 g/ha ([14]; ALOMY, 21 DAT, B3-3 30 g of ai/ha) of 40%.
